One assay deals with T1, CDK8/CycC (Homo sapiens, UniProt P49336).
T1 construct: purchased Carna Biosciences
The experiment in a line: CDK8 inhibitory activity (TR-FRET, Kinase Tracer-236 displacement). The format is binding. Conditions: 1 μM of the test compound; for inhibition at 1 µM: read-out: Percent inhibition of CDK8 activity (%). The method in brief: (§1)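 Binding assay measuring displacement of Kinase Tracer-236 (60 nM in the added mix) by compound, using Eu-cryptate anti-GST antibody with CDK8/CycC (84 ng/mL) or CDC2L6/CycC (87 ng/mL) solutions. After 1 h at room temperature, TR-FRET read at 615 and 665 nm (excitation 320 nm).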
In general terms: Time-resolved FRET reads energy transfer from a long-lived donor to a nearby acceptor.

The subject of assay [1] is human multiple myeloma RPMI8226 cells. The experiment in a line: Inhibitory activity against human multiple myeloma RPMI8226 cell growth (CellTiter-Glo). It counts as cell-based. As to conditions: 1 μM of the test compound, cultured for 8 days; for inhibition at 1 µM: Homo sapiens, RPMI-8226, 192 h, read-out: Percent inhibition of RPMI8226 cell growth (%). Summed up: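 RPMI8226 cells (300/well) cultured 1 day at 37 °C, 5% CO2, then given compound at 1 μM for 8 days. ATP luminescence (CellTiter-Glo) read; percent inhibition relative to 0.1% DMSO wells.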
Background: ATP-based viability assays read luminescence as a measure of living cells.

The test system of assay [2] is SW480 human colorectal cancer cells. Nature of the assay: Antitumor efficacy in mice bearing SW480 human colorectal cancer xenograft. The format is in vivo, BALB/c female nude mice. Conditions: Mus musculus, SW480, 336 h; 30 mg/kg, oral, 1 dose per day, 14 days; percent tumor growth relative to control group; read-out: T/C (%). On the procedure:
The compound of the present invention was evaluated for its antitumor efficacy in mice bearing cancer derived from SW480 human colorectal cancer cells by the following method.
SW480 human colorectal cancer cells were transplanted into 6- to 7-week-old BALB/c female nude mice (CLEA Japan) by subcutaneous injection of 2.0×10^6 cells per mouse. At 7 to 14 days after the transplantation, the size of the engrafted tumor was measured, and the tumor volume was calculated according to the following formula. Tumor volume=major axis×minor axis×minor axis×(½)
Test subjects having an engrafted tumor with a tumor volume of approximately 100 mm^3 were selected and used in the experiment (6 subjects per group). A suspension of each test compound in a 0.5% methylcellulose solution (Wako Pure Chemical Industries) was orally administered to the mice for 14 days at the dose (mg/kg body weight, indicating the amount per dose) and the number of doses shown in Table 4. On the day before the start of the administration and the day before the completion of the administration, the tumor size was measured, and the tumor volume was calculated.
Percent tumor growth (T/C (%)) of the test compound administration group relative to the control administration group was calculated according to the following formula. T/C(%)=(tumor volume of the test compound administration group after the completion of the administration−tumor volume of the test compound administration group at the day before the start of the administration)/(tumor volume of the control administration group after the completion of the administration−tumor volume of the control administration group at the day before the start of the administration))×100
In general terms: In xenograft studies the graft and the host belong to different species.

The next assay deals with T2, CDK19 (CDC2L6/CycC) (Homo sapiens, UniProt Q9BWU1).
T2 construct: purchased Carna Biosciences
The experiment in a line: CDK19 inhibitory activity (TR-FRET, Kinase Tracer-236 displacement). It counts as binding. As to conditions: 1 μM of the test compound; for inhibition at 1 µM: read-out: Percent inhibition of CDK19 activity (%). The method in brief: as §1

Structures can show the parent of a compound that is named as a salt.

T2 sequence (Q9BWU1 whole entry): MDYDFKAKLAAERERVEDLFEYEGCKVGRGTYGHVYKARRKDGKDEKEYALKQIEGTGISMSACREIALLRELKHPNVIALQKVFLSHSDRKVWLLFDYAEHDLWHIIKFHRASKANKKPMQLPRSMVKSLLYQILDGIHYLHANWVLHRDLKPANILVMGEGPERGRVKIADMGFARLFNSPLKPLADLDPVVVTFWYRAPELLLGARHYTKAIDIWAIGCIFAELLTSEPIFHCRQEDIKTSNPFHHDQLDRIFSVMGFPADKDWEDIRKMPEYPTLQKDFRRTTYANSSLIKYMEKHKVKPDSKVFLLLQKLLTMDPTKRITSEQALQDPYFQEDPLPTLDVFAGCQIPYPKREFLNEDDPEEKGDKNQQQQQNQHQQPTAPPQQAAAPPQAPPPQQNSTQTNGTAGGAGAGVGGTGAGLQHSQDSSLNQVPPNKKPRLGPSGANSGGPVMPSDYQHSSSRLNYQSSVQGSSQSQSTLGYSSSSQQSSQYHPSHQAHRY
T2 sequence (P24863 whole entry partner): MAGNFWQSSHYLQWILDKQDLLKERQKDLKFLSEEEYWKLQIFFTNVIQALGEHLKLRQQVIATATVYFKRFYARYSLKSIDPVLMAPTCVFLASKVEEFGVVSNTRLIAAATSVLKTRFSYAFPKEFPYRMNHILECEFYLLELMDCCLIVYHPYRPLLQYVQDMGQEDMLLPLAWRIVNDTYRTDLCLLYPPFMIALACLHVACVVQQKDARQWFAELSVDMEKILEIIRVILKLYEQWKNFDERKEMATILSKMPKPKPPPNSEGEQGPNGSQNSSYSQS
T1 sequence (P49336 whole entry): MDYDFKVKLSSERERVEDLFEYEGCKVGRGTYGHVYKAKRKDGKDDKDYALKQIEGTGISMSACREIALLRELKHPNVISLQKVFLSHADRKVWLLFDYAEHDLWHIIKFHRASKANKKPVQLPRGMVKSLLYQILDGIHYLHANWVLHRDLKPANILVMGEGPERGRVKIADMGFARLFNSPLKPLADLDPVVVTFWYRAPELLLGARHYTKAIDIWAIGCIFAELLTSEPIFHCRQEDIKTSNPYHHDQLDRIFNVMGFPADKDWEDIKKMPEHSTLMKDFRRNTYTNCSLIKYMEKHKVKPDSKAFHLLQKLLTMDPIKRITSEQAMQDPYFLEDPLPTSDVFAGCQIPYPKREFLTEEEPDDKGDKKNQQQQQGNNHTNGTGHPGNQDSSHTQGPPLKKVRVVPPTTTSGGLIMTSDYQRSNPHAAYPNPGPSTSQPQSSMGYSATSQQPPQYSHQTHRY
T1 sequence (P24863 whole entry partner): as the sequence (P24863 whole entry partner) above

As for `Cn1cc(-c2c(F)cncc2/C=C/C(=O)Nc2ccc(CN3CC(F)(F)C3)cc2)cn1` [Example 359, (2E)-N-(4-((3,3-Difluoroazetidin-1-yl)methyl)phenyl)-3-(5-fluoro-4-(1-methyl-1H-pyrazol-4-yl)pyridin-3-yl)acrylamide], the inhibition at 1 µM at CDK8/CycC is 103%; in assay [1] it was 65%; on CDK19 (CDC2L6/CycC) it was 102%. In assay [2], the response vs control in vivo at 30 mg/kg was determined as 36%.
For `Cn1cc(-c2ccncc2/C=C/C(=O)Nc2ccc(CCC(F)(F)F)cc2)cn1` [Example 124, (2E)-3-(4-(1-methyl-1H-pyrazol-4-yl)pyridin-3-yl)-N-(4-(3,3,3-trifluoropropyl)phenyl)acrylamide], the values for the inhibition at 1 µM (on CDK8/CycC; in assay [1]; on CDK19 (CDC2L6/CycC)) were 98%, 53% and 99%, respectively.
Turning to `O=C(/C=C/c1cnccc1-c1cnn(C2CC2)c1)Nc1ccc(CN2CC(F)(F)C2)cc1F` [Example 370, (2E)-3-(4-(1-cyclopropyl-1H-pyrazol-4-yl)pyridin-3-yl)-N-(4-((3,3-difluoroazetidin-1-yl)methyl)-2-fluorophenyl)acrylamide], the values for the inhibition at 1 µM (at CDK8/CycC; in assay [1]; at CDK19 (CDC2L6/CycC)) were 105%, 51% and 74%, respectively.
The matching figures for `COc1ccc(-c2ccncc2/C=C/C(=O)Nc2ccc(CN3CCOCC3)cc2)s1` [Example 220, (2E)-3-(4-(5-methoxy-2-thienyl)pyridin-3-yl)-N-(4-(morpholin-4-ylmethyl)phenyl)acrylamide]: 93%, 58% and 96%.
As to `Cn1cc(-c2ccncc2/C=C/C(=O)Nc2cc(F)c(CN3CCOCC3)cc2F)cn1` [Example 237, (2E)-N-(2,5-difluoro-4-(morpholin-4-ylmethyl)phenyl)-3-(4-(1-methyl-1H-pyrazol-4-yl)pyridin-3-yl)acrylamide], the inhibition at 1 µM on CDK8/CycC came out at 94%; in assay [1], 66%; on CDK19 (CDC2L6/CycC), 91%.
The matching figures for `Cn1cc(-c2ccncc2/C=C/C(=O)Nc2ccc(CCN3CCOCC3)cc2)cn1` [Example 91, (2E)-3-(4-(1-Methyl-1H-pyrazol-4-yl)pyridin-3-yl)-N-(4-(2-(morpholin-4-yl)ethyl)phenyl)acrylamide]: 96%, 59% and 101%.
The matching figures for `CN(C)CCc1ccc(NC(=O)/C=C/c2cnccc2-c2cnn(C)c2)cc1` [Example 226, (2E)-N-(4-(2-(dimethylamino)ethyl)phenyl)-3-(4-(1-methyl-1H-pyrazol-4-yl)pyridin-3-yl)acrylamide]: 98%, 66% and 98%.
`O=C(/C=C/c1cnccc1-c1cnn(C2CC2)c1)Nc1ccc2c(ccn2CC(F)(F)F)c1` [Example 266, (2E)-3-(4-(1-Cyclopropyl-1H-pyrazol-4-yl)pyridin-3-yl)-N-(1-(2,2,2-trifluoroethyl)-1H-indol-5-yl)acrylamide]: the inhibition at 1 µM is 99% on CDK8/CycC, 57% in assay [1] and 98% on CDK19 (CDC2L6/CycC).
Consider `Cn1cc(-c2ccncc2/C=C/C(=O)Nc2ccc3cnccc3c2)cn1` [Example 154, (2E)-N-(isoquinolin-6-yl)-3-(4-(1-methyl-1H-pyrazol-4-yl)pyridin-3-yl)acrylamide], for which the inhibition at 1 µM was 96% on CDK8/CycC, 62% in assay [1] and 99% at CDK19 (CDC2L6/CycC).
The matching figures for `O=C(/C=C/c1cnccc1-c1cnn(Cc2ccccn2)c1)Nc1ccc(CN2CCOCC2)cc1` [Example 47, (2E)-N-(4-(morpholin-4-ylmethyl)phenyl)-3-(4-(1-(pyridin-2-ylmethyl)-1H-pyrazol-4-yl)pyridin-3-yl)acrylamide]: 101%, 57% and 98%.
For `Cn1cc(-c2ccncc2/C=C/C(=O)Nc2ccc(CNCC(F)(F)C(F)(F)F)cc2)cn1` [Example 73, (2E)-3-(4-(1-methyl-1H-pyrazol-4-yl)pyridin-3-yl)-N-(4-(((2,2,3,3,3-pentafluoropropyl)amino)methyl)phenyl)acrylamide], the inhibition at 1 µM on CDK8/CycC was determined as 101%; in assay [1] it was 56%; at CDK19 (CDC2L6/CycC) it was 99%.
The matching figures for `Cn1cc(-c2ccncc2/C=C/C(=O)Nc2ccc3cc[nH]c3c2)cn1` [Example 155, (2E)-N-(1H-indol-6-yl)-3-(4-(1-methyl-1H-pyrazol-4-yl)pyridin-3-yl)acrylamide]: 98%, 54% and 93%.
The corresponding values for `O=C(/C=C/c1cnccc1-c1cnn(Cc2ccccc2)c1)Nc1ccc(CN2CCOCC2)cc1` [Example 93, (2E)-3-(4-(1-benzyl-1H-pyrazol-4-yl)pyridin-3-yl)-N-(4-(morpholin-4-ylmethyl)phenyl)acrylamide] are 101%, 63% and 101%.
The matching figures for `Cn1cc(-c2ccncc2/C=C/C(=O)Nc2ccc(CN3CCC(F)(F)C3)cc2)cn1` [Example 68, (2E)-N-(4-((3,3-difluoropyrrolidin-1-yl)methyl)phenyl)-3-(4-(1-methyl-1H-pyrazol-4-yl)pyridin-3-yl)acrylamide]: 99%, 62% and 100%.
For the compound `Cc1cc(NC(=O)/C=C/c2cnccc2-c2cnn(C3CC3)c2)ccc1CN1CCOCC1` [Example 142, (2E)-3-(4-(1-cyclopropyl-1H-pyrazol-4-yl)pyridin-3-yl)-N-(3-methyl-4-(morpholin-4-ylmethyl)phenyl)acryalmide], the inhibition at 1 µM was found to be 98% at CDK8/CycC, 62% in assay [1] and 99% on CDK19 (CDC2L6/CycC).
Regarding `O=C(/C=C/c1cnccc1-c1cnn(C2CC2)c1)Nc1ccc(CN2CC(F)(F)C2)cc1` [Example 373, (2E)-3-(4-(1-Cyclopropyl-1H-pyrazol-4-yl)pyridin-3-yl)-N-(4-((3,3-difluoroazetidin-1-yl)methyl)phenyl)acrylamide sulfate], the “Percent inhibition of CDK8 activity (%)” value on CDK8/CycC (sulfate, 1 µM) came to 101%. The “Percent inhibition of RPMI8226 cell growth (%)” value in assay [1] (sulfate, 1 µM) is listed as 70%. The “Percent inhibition of CDK19 activity (%)” value on CDK19 (CDC2L6/CycC) (sulfate, 1 µM) is given as 101%.
For `Cn1cc(-c2ccncc2/C=C/C(=O)Nc2ccc(CN3CC(F)(F)OC(F)(F)C3)cc2)cn1` [Example 58], the figures for the inhibition at 1 µM (at CDK8/CycC; in assay [1]; on CDK19 (CDC2L6/CycC)) were 97%, 55% and 98%, respectively.
The matching figures for `Cn1cc2cc(-c3ccncc3/C=C/C(=O)Nc3ccc(CN4CCOCC4)cc3)ccc2n1` [Example 261, (2E)-3-(4-(2-methyl-2H-indazol-5-yl)pyridin-3-yl)-N-(4-(morpholin-4-ylmethyl)phenyl)acrylamide]: 97%, 52% and 93%.
The matching figures for `Cn1cc(-c2ccncc2/C=C/C(=O)Nc2ccc(CN3CC(F)(F)C3)cc2)cn1` [Example 69, (2E)-N-(4-((3,3-difluoroazetidin-1-yl)methyl)phenyl)-3-(4-(1-methyl-1H-pyrazol-4-yl)pyridin-3-yl)acrylamide]: 99%, 48% and 99%.
The corresponding values for `Cn1cnc2ccc(-c3ccncc3/C=C/C(=O)Nc3ccc4c(ccn4CC(F)(F)F)c3)cc21` [Example 298, (2E)-3-(4-(1-methyl-1H-benzimidazol-6-yl)pyridin-3-yl)-N-(1-(2,2,2-trifluoroethyl)-1H-indol-5-yl)acrylamide] are 85%, 63% and 84%.
As to `COCc1ccc(NC(=O)/C=C/c2cnccc2-c2cnn(C)c2)cc1` [Example 239, (2E)-N-(4-(methoxymethyl)phenyl)-3-(4-(1-methyl-1H-pyrazol-4-yl)pyridin-3-yl)acrylamide], the inhibition at 1 µM came to 100% on CDK8/CycC, 65% in assay [1] and 100% on CDK19 (CDC2L6/CycC).

The term inhibition denotes the change of the read-out against control, counted positive when it falls.

Values taken from patent publication US9957251B2 (Takeda Pharmaceutical Company Limited, priority 2014, dated 2018).
